Data as given in patent US20220411414A1, “INHIBITORS FOR THE B-CATENIN/B-CELL LYMPHOMA 9 (BCL9) PROTEIN-PROTEIN INTERACTION” (H. LEE MOFFITT CANCER CENTER AND RESEARCH INSTITUTE, INC., priority 2018, published 2022).

Tests used:
β-catenin/BCL9 = biological target: T1, β-catenin/BCL9 (Homo sapiens, UniProt P35222); assay: AlphaScreen competitive inhibition assay, β-catenin/BCL9 PPI; type: binding; conditions: for Ki: AlphaScreen
T1 construct: Full-length β-catenin and (residues 1-781) were cloned into a pET-28b vector carrying a C-terminal 6× histidine; made in house; host or cells: E. coli BL21 DE3
T1 sequence (P35222 1-781): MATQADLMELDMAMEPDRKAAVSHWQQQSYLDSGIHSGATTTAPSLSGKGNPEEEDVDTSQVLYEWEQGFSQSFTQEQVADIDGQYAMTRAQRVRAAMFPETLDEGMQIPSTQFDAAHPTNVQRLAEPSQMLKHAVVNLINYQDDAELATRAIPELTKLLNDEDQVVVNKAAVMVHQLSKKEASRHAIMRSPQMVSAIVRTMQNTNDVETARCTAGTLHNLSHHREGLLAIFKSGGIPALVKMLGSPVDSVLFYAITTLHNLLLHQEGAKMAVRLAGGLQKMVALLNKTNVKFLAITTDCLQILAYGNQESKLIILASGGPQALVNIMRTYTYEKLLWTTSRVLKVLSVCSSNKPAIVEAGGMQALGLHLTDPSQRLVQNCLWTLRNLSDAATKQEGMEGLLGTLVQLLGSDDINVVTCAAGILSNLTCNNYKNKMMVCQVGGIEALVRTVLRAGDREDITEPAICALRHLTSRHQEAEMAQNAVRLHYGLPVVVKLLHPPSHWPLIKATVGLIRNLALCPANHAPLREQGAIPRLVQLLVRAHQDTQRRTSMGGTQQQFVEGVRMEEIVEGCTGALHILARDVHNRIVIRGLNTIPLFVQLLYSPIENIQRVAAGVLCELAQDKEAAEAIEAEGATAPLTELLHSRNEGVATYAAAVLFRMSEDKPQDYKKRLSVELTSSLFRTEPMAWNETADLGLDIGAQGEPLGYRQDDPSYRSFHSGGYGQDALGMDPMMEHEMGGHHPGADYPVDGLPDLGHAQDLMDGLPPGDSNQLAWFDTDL
Source text: The biochemical AlphaScreen assay was employed to evaluate the inhibitory potency of these two final products for disruption of the β-catenin/BCL9 PPI.
(§1) BCL9 peptide synthesis and purification. Human BCL9 (residues 350-375), N-terminally biotinylated human BCL9 (residues 350-375), human E-cadherin (residues 824-877), and N-terminally biotinylated human E-cadherin (residues 824-877) were synthesized by InnoPep Inc. (San Diego, Calif., www.innopep.com). All synthesized peptides were purified by HPLC with purity >95%. The structures were validated by LC/MS. The sequences are as follows (Ahx, 6-aminohexanoic acid).
For the β-catenin/BCL9 assay, 5 nM of biotinylated BCL9 and 40 nM of His6-tagged β-catenin were incubated in assay buffer at 4° C. for 30 min. For the β-catenin/E-cadherin assay, 10 nM of biotinylated human E-cadherin, and 40 nM of His6-tagged human β-catenin were added and incubated in assay buffer at 4° C. for 30 min. Different concentrations of the tested peptide or inhibitor were added and incubated in 20 μL assay buffer at 4° C. for another 1.5 h. All of the above assay plates were covered and gently mixed on an orbital shaker. The donor and acceptor beads were then added to the plates to a final concentration of 10 μg/mL in 25 μL assay buffer. The mixture was incubated for 1 h at 4° C. before detection. The IC50 value was determined by nonlinear least-square analysis of GraphPad Prism 5.0. The inhibition constant (Ki) values were derived from the IC50 values using a method reported by Nikolovska-Coleska et al (Nikolovska-Coleska, Z.; Wang, R.; Fang, X.; Pan, H.; Tomita, Y.; Li, P.; Roller, P. P.; Krajewski, K.; Saito, N. G.; Stuckey, J. A.; Wang, S. Development and optimization of a binding assay for the XIAP BIR3 domain using fluorescence polarization, Anal. Biochem. 2004, 332, 261-273.). The assays were conducted under the conditions required by Nikolovska-Coleska et al.'s equation for determining the Ki values. All of the experiments were performed in triplicate. The results were expressed as mean±standard deviation. The inhibitor selectivity for, β-catenin/BCL9 over, β-catenin/E-cahderin interactions was defined as the ratio of the respective Ki value of β-catenin/E-cadherin interactions over that of β-catenin/BCL9 interactions.

β-catenin/E-cadherin = biological target: T2, β-catenin/E-cadherin (Homo sapiens, UniProt P35222); assay: AlphaScreen selectivity assay, β-catenin/E-cadherin PPI; type: binding; conditions: Table 2, read-out: Ki ± SD β-catenin/E-cadherin
T2 construct: Full-length β-catenin and (residues 1-781) were cloned into a pET-28b vector carrying a C-terminal 6× histidine; made in house; host or cells: E. coli BL21 DE3
T2 sequence (P35222 1-781): T1 sequence (P35222 1-781)
Source text: Compounds 4 and 5 were further evaluated with their selectivities for the disruption of β-catenin/BCL9 over β-catenin/E-cadherin interactions using the AlphaScreen selectivity assay (Zhang, M.; Wisniewski, J. A.; Ji, H AlphaScreen selectivity assay for, β-catenin/B-cell lymphoma 9 inhibitors. Anal. Biochen. 2015, 469, 43-53.).
as §1, with “The structures were validated by LC/MS. The sequences are as follows (Ahx, 6-aminohexanoic acid).” left out
For the β-catenin/BCL9 assay, 5 nM of biotinylated BCL9 and 40 nM of His6-tagged β-catenin were incubated in assay buffer at 4° C. for 30 min. […] The IC50 value was determined by nonlinear least-square analysis of GraphPad Prism 5.0. The inhibition constant (Ki) values were derived from the IC50 values using a method reported by Nikolovska-Coleska et al (Nikolovska-Coleska, Z.; Wang, R.; Fang, X.; Pan, H.; Tomita, Y.; Li, P.; Roller, P. P.; Krajewski, K.; Saito, N. G.; Stuckey, J. A.; Wang, S. Development and optimization of a binding assay for the XIAP BIR3 domain using fluorescence polarization, Anal. Biochem. 2004, 332, 261-273.). […] The results were expressed as mean±standard deviation. […]

A549 = assay: MTs growth inhibition assay, A549 (Wnt-latent); type: cell-based; conditions: Homo sapiens, read-out: MTs IC50 ± SD A549
[1] = system: TOPFlash (three wild-type Tcf binding sites) luciferase reporter; assay: Wnt-responsive TOPFlash luciferase reporter assay, β-catenin-activated HEK239; type: cell-based; conditions: 24 h treatment, read-out: TOPFlash IC50 ± SD β-catenin-activated HEK239
Method: (§2) The TOPFlash luciferase reporter assay (in which the luciferase reporter has three wild-type Tcf4 binding sites) was performed with 4 and 5. Cell transfection and luciferase assay. FuGENE6 (E269A, Promega) 96 well plate format was used for the transfection of HEK293 and SW480 cells according to the manufacturer's instruction. HEK293 cells were co-transfected with 45 ng of TOPFlash or FOPFlash reporter gene, 135 ng pcDNA3.1-β-catenin, and 20 ng of pCMV-RL normalization reporter gene. SW480 cells were co-transfected with 60 ng of the TOPFlash or FOPFlash reporter gene and 40 ng of pCMV-RL normalization reporter. Cells were cultured in DMEM and 10% FBS at 37° C. for 24 h, and different concentrations of inhibitors or DMSO was added. After 24 h, the luciferase reporter activity was measured using the Dual-Glo system (E2940, Promega). Normalized luciferase activity in response to the treatment with 4 and 5 was compared with that obtained from the cells treated with DMSO. Experiments were performed in triplicate.

[2] = system: TOPFlash (three wild-type Tcf binding sites) luciferase reporter; assay: Wnt-responsive TOPFlash luciferase reporter assay, SW480; type: cell-based; conditions: Homo sapiens, 24 h treatment, read-out: TOPFlash IC50 ± SD SW480
Method: as §2

[3] = system: FOPFlash (three mutant Tcf4 binding sites) luciferase reporter; assay: FOPFlash luciferase reporter assay; type: cell-based; conditions: FIG. 1
Method: as §2, with “Cell” for “The TOPFlash luciferase reporter assay (in which the luciferase reporter has three wild-type Tcf4 binding sites) was performed with 4 and 5. Cell”

[4] = biological target: T3, β-catenin/BCL9 interaction (Homo sapiens, UniProt P35222); conditions: literature; cited from earlier work
T3 sequence (P35222 1-781): T1 sequence (P35222 1-781)

Wnt target genes = conditions: literature; cited from earlier work
activated β-catenin = biological target: T4, activated β-catenin (Homo sapiens, UniProt P35222); conditions: literature; cited from earlier work
T4 sequence (P35222 1-781): T1 sequence (P35222 1-781)

Row | selectivity for β-catenin/BCL9 over β-catenin/E-cadherin PPIs (in words) (β-catenin/BCL9; AlphaScreen biochemical assay) | Ki (β-catenin/BCL9; Table 1, mean ± SD (n = 3)) [µM] | Ki (β-catenin/BCL9; Table 2, mean ± SD (n = 3)) [µM] | Selectivity BCL9/cadherin (β-catenin/BCL9; ratio of Ki β-catenin/E-cadherin over Ki β-catenin/BCL9) | Ki (β-catenin/E-cadherin) [µM] | IC50 (A549) [µM] | IC50 [1] [µM] | IC50 [2] [µM] | Compound | FOPFlash luciferase activity [3] | disruption of the β-catenin/BCL9 interaction [4] | transcription of Wnt target genes / β-catenin-dependent transcription (Wnt target genes) | destabilization of activated β-catenin (activated β-catenin)
1 | exceptionally high selectivity | 1.6 ± 0.23 | 1.6 ± 0.23 | >570 | > 915 | > 400 | 50 ± 5.2 | 43 ± 3.4 | Cl.Cl.O=C(Nc1ccc(O[C@@H]2CCNC2)c(-c2cccc(-c3nn[nH]n3)c2)c1)c1ccc(O[C@H]2CCNC2)c(-c2ccc3ccsc3c2)c1 [Compound 5, (R)-3-((5-(3-(benzo[b]thiophen-6-yl)-4-(((S)-pyrrolidin-1-ium-3-yl)oxy)benzamido)-3′-(2H-tetrazol-5-yl)-[1,1′-biphenyl]-2-yl)oxy) pyrrolidin-1-ium chloride] | did not inhibit |  |  | 
2 |  |  |  |  |  |  |  |  | CC(C)c1cc2c(c(O)c1O)[C@@]1(C(=O)O)CCCC(C)(C)[C@@H]1CC2 [carnosic acid] |  | can disrupt the β-catenin/BCL9 interaction | inhibit | destabilize
